Assays:
[1] = target: affinity-purified polyclonal antibody specific for MAA adducts; experiment: Competitive ELISA: inhibition of MAA-specific antibody binding to solid-phase BSA-MAA; set-up: species or system rabbit; details: for 50% inhibitory concentration: bovine serum albumin-MAA as solid phase antigen
Description: A competitive ELISA was developed in order to detect the presence and to quantify the level of MDA/acetaldehyde modified proteins. Following the basic methodology developed by Roberts, et al, “A Sensitive Immunochemical Assay for Acetaminophen-Protein Adducts”, J Pharmacol Exp Ther, 1987; 241:527-533; Pumford, et al, “Immunochemical Quantitation of 3-(cystein-S-yl)Acetaminophen Adducts in Serum and Liver Proteins of Acetaminophen-Treated Mice”, J Pharmacol Exp Ther, 1989; 248:190-196, incorporated herein by reference, these assays were conducted by allowing a limiting amount of antibody to react with inhibitor, either standard or unknown, in the presence of excess solid phase antigen (MDA/acetaldehyde modified proteins). […] Biotinylated antibody (1/500 final dilution) was incubated with varying concentrations of test samples (standards or unknowns) overnight at 4° C., and then a 100 μl-aliquot of each sample was added to duplicate wells of the coated plates and incubated for 45 minutes at 37° C. After washing, 100 μl of alkaline phosphatase-conjugated streptavidin was added, and procedures as described above for the Direct ELISA were used to obtain optical density measurements. […] [formula]
where ODmax is OD in the absence of inhibitor, BKG is OD from nonspecific absorption of assay reagents and ODsample is the OD for a given concentration of standard or unknown sample.
An immunological assay, using an affinity-purified polyclonal antibody specific for MAA adducts, was employed to detect the presence of these adducts in livers of ethanol-fed rats. Since MAA adducts are likely composed of more than one distinct product, applicants proposed that 4-methyl-1,4-dihydropyridine-3,5-dicarbaldehyde (MDDC), derivatized to an ε-amino group of lysine, represents a structure for one of the major MAA-protein adducts. The purpose of this study was to characterize the antigen binding properties of the MAA specific antibody and determine whether MDDC epitopes are a major determinant of antibody recognition. A competitive ELISA, utilizing bovine serum albumin-MAA as the solid phase antigen, was used to test the binding specificity of the antibody.

[2] = target: T1, bovine serum albumin (BSA) (Bos taurus, UniProt P02769); experiment: Stable binding of acetaldehyde to proteins in the presence of MDA; assay type: biochemical; details: acetaldehyde 1 mM, 24 hours of incubation, 4-fold molar excess of MDA
T1 construct: purchased Sigma Chemical Co. (St. Louis, Mo.)
Procedure: Concentrations of acetaldehyde (0.1 mM or 1.0 mM) were incubated with various protein solutions in the absence and presence of varying concentrations of MDA. Incubations were conducted in phosphate buffer (0.1 M, pH 7.4) at 37° C. in polypropylene vessels that were sealed to minimize the loss of volatile radioactivity. The reactions were performed under nitrogen gas in the dark. During a 72-hr incubation period, aliquots were removed for stable acetaldehyde binding determinations and fluorescence measurements as previously described. Hoffmann, “Reaction of Acetaldehyde with Proteins: Formation of Stable Fluorescent Adducts”, Alcohol Clin Exp Res, 1993; 17:69-74. Briefly, postincubation, free and unstable-bound acetaldehyde were separated by exhaustive dialysis against phosphate buffer for 24 hours at 4° C. Radioactivity was then measured in the retenate and represented stably bound acetaldehyde. Results are expressed as nmoles acetaldehyde bound per mg of protein. Fluorescence measurements were obtained on post-dialysis samples using a Perkin Elmer LS-5B spectrophotofluorometer attached to a Perkin Elmer GP-100 graphics printer.
When acetaldehyde (1 mM) was incubated with bovine serum albumin (BSA) in the presence of varying concentrations of MDA over a 72-hour time course, MDA markedly stimulated the binding of acetaldehyde to BSA in a concentration-dependent manner. […]

Balc/c mice = experiment: Immunization of mice with BSA or BSA-MAA, antiserum titration by ELISA; assay type: in vivo; details: antiserum tested on MSA and MSA-MAA
Procedure: The purpose of this study was to determine how modification of a soluble carrier protein with the MAA adduct alters the humoral immune response. Balc/c mice were immunized weekly by i.p. injection with 100 μg of either bovine serum albumin unmodified (BSA) or modified with MAA (BSA-MAA). Titration of antiserum was performed by ELISA on wells coated with either BSA, BSA-MAA, mouse albumin (MSA) and MSA-MAA. […] In mice immunized with lower concentrations of BSA-MAA, antibody titers decreased in a dose dependent manner to both BSA and BSA-MAA (>1:3200 at 100 μg to 1:2000 at 25 μg).

T1 sequence (P02769 25-607): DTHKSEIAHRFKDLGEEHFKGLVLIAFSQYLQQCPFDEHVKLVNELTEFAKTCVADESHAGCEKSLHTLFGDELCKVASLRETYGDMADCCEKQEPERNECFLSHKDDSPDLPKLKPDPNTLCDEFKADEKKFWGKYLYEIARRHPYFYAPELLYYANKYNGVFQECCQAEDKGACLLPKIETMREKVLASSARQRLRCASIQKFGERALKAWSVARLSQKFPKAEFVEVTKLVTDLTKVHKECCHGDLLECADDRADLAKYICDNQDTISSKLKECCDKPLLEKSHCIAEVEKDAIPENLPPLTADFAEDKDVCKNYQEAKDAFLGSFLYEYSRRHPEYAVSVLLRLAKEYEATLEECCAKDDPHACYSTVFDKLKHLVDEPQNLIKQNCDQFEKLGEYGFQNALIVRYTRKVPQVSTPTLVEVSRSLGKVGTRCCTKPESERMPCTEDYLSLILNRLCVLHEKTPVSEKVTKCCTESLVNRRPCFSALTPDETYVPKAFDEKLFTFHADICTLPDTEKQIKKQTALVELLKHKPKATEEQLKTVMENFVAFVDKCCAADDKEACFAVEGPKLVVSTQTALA

Molecule: CCCCCCN1C=C(C=O)C(C)C(C=O)=C1 [1-hexyl-MDDC]
- 50% inhibitory concentration [1]: 4 pmoles/well

Molecule: CC1C(C=O)=CNC=C1C=O [1-hydrogen MDDC, 4-methyl-1,4-dihydropyridine-3,5-dicarbaldehyde]
- 50% inhibitory concentration [1]: 240 pmoles/well

Molecule: Cc1ncc(CO)c(C=O)c1O [pyridoxal, reference compound]
- inhibition of antibody binding [1]: negligible inhibitions

Molecule: O=CCC=O [MDA, malondialdehyde]
- stimulation of acetaldehyde binding to BSA [2]: 13 fold

Molecule: NC(=O)C1=CN([C@@H]2O[C@H](COP(=O)(O)OP(=O)(O)OC[C@H]3O[C@@H](n4cnc5c(N)ncnc54)[C@H](O)[C@@H]3O)[C@@H](O)[C@H]2O)C=CC1 [NADH, reference compound]
- inhibition of antibody binding [1]: negligible inhibitions

Molecule: CC1C(C=O)=CN(C)C=C1C=O [1-methyl MDDC]
- 50% inhibitory concentration [1]: 14 pmoles/well

Molecule: BSA-MAA: bovine serum albumin modified with MAA (malondialdehyde-acetaldehyde adduct)
- antibody titer to the MAA adduct (tested on MSA-MAA) (Balc/c mice): significant antibody titer
- response to the autologous protein (MSA) (Balc/c mice): no response
